Where two headings read alike, the source gives them in different places.
Tests used:
[1] = test system: Phakopsora pachyrhizi (the causal agent of Asian soybean rust); assay: Test A: preventive spray on soybean seedlings, Asian soybean rust, visual disease rating; format: in vivo; settings: for pest or weed control at 10 µg/mL: read-out: Test A disease control rating
From the text: (§1) General protocol for preparing test suspensions for Tests A-D: the test compounds were first dissolved in acetone in an amount equal to 3% of the final volume and then suspended at the desired concentration (in ppm) in acetone and purified water (50/50 mix by volume) containing 250 ppm of the surfactant PEG400 (polyhydric alcohol esters). The resulting test suspensions were then used in Tests A-D.
(§2) The test suspension was sprayed to the point of run-off on soybean seedlings. The following day the seedlings were inoculated with a spore suspension of Phakopsora pachyrhizi (the causal agent of Asian soybean rust) and incubated in a saturated atmosphere at 22° C. for 24 h and then moved to a growth chamber at 22° C. for 8 days, after which time visual disease ratings were made.
(§3) The test results for Tests A-C presented in Table A below for compounds of Formula 1 illustrate the fungicidal activity of component (a) contributing to the plant disease control utility of compositions comprising component (a) in combination with component (b) according to the present invention. In the Table, a rating of 100 indicates 100% disease control and a rating of 0 indicates no disease control (relative to the controls). A dash (-) indicates the compound was not tested. The test suspensions were sprayed at the concentration listed in the column “Rate in ppm”, unless otherwise indicated. An asterisk “*” next to the rating indicates a 250 ppm test suspension was used, a double asterisk “**” next to the rating indicates a 100 ppm test suspension was used, and a triple asterisk “***” next to the rating indicates a 50 ppm test suspension was used.

[2] = test system: Puccinia recondita f. sp. tritici (the causal agent of wheat leaf rust); assay: Test C: preventive spray on wheat seedlings, wheat leaf rust, visual disease rating; format: in vivo; settings: for pest or weed control at 10 µg/mL: read-out: Test C disease control rating
From the text: as §1
as §2, with “on wheat” for “on soybean”, “of Puccinia recondita f. sp. tritici;” for “of Phakopsora pachyrhizi”, “of wheat leaf” for “of Asian soybean”, “at 20°” for “at 22°”, “24 h,” for “24 h”, “for 6” for “for 8”
as §3

[3] = test suspension 10 ppm, soybean seedlings, 100 = 100% disease control, 0 = no control
[4] = test suspension 10 ppm, wheat seedlings
[5] = 10 ppm test suspension, soybean seedlings, 100 = 100% disease control, 0 = no control
[6] = 10 ppm test suspension, wheat seedlings, 100 = 100% disease control, 0 = no control
[7] = test suspension 50 ppm, soybean seedlings
[8] = test suspension 50 ppm, wheat seedlings

Structure (SMILES)	Test A disease control rating [1, 3] [%]	Test C disease control rating [2, 4] [%]	also measured
O=c1ccc2ccccc2n1Cc1ccc(-c2noc(C(F)(F)F)n2)cc1 [compound 157]	100	100	–
CCOC(=O)c1cc(C)n(Cc2ccc(-c3noc(C(F)(F)F)n3)s2)n1 [compound 73]	100	86	–
Cc1ccc(C(O)c2ccc(-c3noc(C(F)(F)F)n3)cc2)cc1 (centres unmarked) [compound 501]	–	–	Test A disease control rating [1, 5]: 100%; Test C disease control rating [2, 6]: 0%
Cn1c(C(F)(F)F)nn(Cc2ccc(-c3noc(C(F)(F)F)n3)cc2)c1=O [compound 267]	–	–	Test A disease control rating [1, 7]: 99%; Test C disease control rating [2, 8]: 74%
Cc1nn(Cc2ccc(-c3noc(C(F)(F)F)n3)cc2)c2cccc(Br)c12 [compound 34]	71	55	–
COC(=O)c1ccc2nn(Cc3ccc(-c4noc(C(F)(F)F)n4)cc3)cc2c1 [compound 35]	100	98	–
CCOC(=O)c1cnn(CCc2ccc(-c3noc(C(F)(F)F)n3)cc2)c1 [compound 437]	–	–	Test A disease control rating [1, 5]: 100%; Test C disease control rating [2, 6]: 86%
O=c1ccc(Cl)nn1Cc1ccc(-c2noc(C(F)(F)F)n2)cc1 [Compound 4, 6-chloro-2-[[4-[5-(trifluoromethyl)-1,2,4-oxadiazol-3-yl]phenyl]methyl]-3(2H)-pyridazinone]	–	–	pest or weed control at 50 µg/mL ([1]; Phakopsora pachyrhizi, 216 h, test suspension 50 ppm, soybean seedlings): 100%; pest or weed control at 50 µg/mL ([2]; Puccinia recondita, 168 h, test suspension 50 ppm, wheat seedlings): 100%
CC(C)=CCOC(=O)c1cnn(Cc2ccc(-c3noc(C(F)(F)F)n3)cc2)c1 [compound 169]	100	99	–
Cc1cc2nn(Cc3ccc(-c4noc(C(F)(F)F)n4)cc3)cc2cc1Br [compound 33]	100	68	–
FC(F)(F)c1nc(-c2ccc(Cn3cc4c(Cl)cc(Br)cc4n3)cc2)no1 [compound 54]	99	68	–
C[Si](C)(C)C#CCOC(=O)c1cnn(Cc2ccc(-c3noc(C(F)(F)F)n3)cc2)c1 [compound 348]	100	96	–
CCOC(=O)c1cc(CC)n(Cc2ccc(-c3noc(C(F)(F)F)n3)cc2)n1 [compound 79]	100	68	–
O=C(NCCCl)c1coc(Cc2ccc(-c3noc(C(F)(F)F)n3)cc2)n1 [Compound 204, N-(2-chloroethyl)-2-[[4-[5-(trifluoromethyl)-1,2,4-oxadiazol-3-yl]phenyl]methyl]-4-oxazolecarboxamide]	–	–	pest or weed control at 10 µg/mL ([1]; Phakopsora pachyrhizi, 216 h): 100%; pest or weed control at 10 µg/mL ([2]; Puccinia recondita, 168 h): 100%
FC(F)(F)c1nc(-c2ccc(Cn3ccc4ccccc43)s2)no1 [compound 196]	100	93	–
O=C(Nc1ccccc1)c1cnn(Cc2ccc(-c3noc(C(F)(F)F)n3)cc2)c1 [compound 485]	–	–	Test A disease control rating [1, 5]: 100%; Test C disease control rating [2, 6]: 99%
N#Cc1ccc2c(cnn2Cc2ccc(-c3noc(C(F)(F)F)n3)s2)c1 [compound 194]	100	100	–
N#Cc1cccn(Cc2ccc(-c3noc(C(F)(F)F)n3)cc2)c1=O [compound 417]	–	–	Test A disease control rating [1, 5]: 100%; Test C disease control rating [2, 6]: 100%
O=C(O)c1cnn(CCCc2ccc(-c3noc(C(F)(F)F)n3)cc2)c1 [compound 363]	–	–	Test A disease control rating [1, 7]: 100%; Test C disease control rating [2, 8]: 100%
CCOC(=O)c1cn(Cc2ccc(-c3noc(C(F)(F)F)n3)cc2)c(=O)cn1 [compound 419]	–	–	Test A disease control rating [1, 5]: 96%; Test C disease control rating [2, 6]: 99%

Structure (SMILES)	Test A disease control rating [1, 3] [%]	Test C disease control rating [2, 4] [%]	also measured
O=[N+]([O-])c1cnn(Cc2ccc(-c3noc(C(F)(F)F)n3)cc2)c1 [compound 382]	–	–	Test A disease control rating [1, 5]: 100%; Test C disease control rating [2, 6]: 96%
CCOC(=O)c1cnn(Cc2ccc3cc(-c4noc(C(F)(F)F)n4)ccc3c2)c1 [compound 457]	–	–	Test A disease control rating ([1]; 50 ppm test suspension, soybean seedlings, 100 = 100% disease control, 0 = no control): 77%; Test C disease control rating ([2]; 50 ppm test suspension, wheat seedlings, 100 = 100% disease control, 0 = no control): 0%
CCOC(=O)c1cnn(CS(=O)(=O)Cc2ccc(-c3noc(C(F)(F)F)n3)cc2)c1 [compound 243]	98	85	–
CON=C(C)COC(=O)c1cnn(Cc2ccc(-c3noc(C(F)(F)F)n3)cc2)c1 [compound 350]	100	99	–
N#CC1(NC(=O)c2cnn(Cc3ccc(-c4noc(C(F)(F)F)n4)cc3)c2)CC1 [compound 173]	100	96	–
CCOC(=O)c1cc(C(C)C)nn1Cc1ccc(-c2noc(C(F)(F)F)n2)cc1 [compound 82]	0	0	–
CCOC(=O)c1cnn(Cc2cc(OC)c(-c3noc(C(F)(F)F)n3)s2)c1 [compound 336]	0	0	–
O=C(O)c1cc(C(=O)O)n(Cc2ccc(-c3noc(C(F)(F)F)n3)cc2)n1 [compound 140]	0	0	–
CC(COC(=O)c1cnn(Cc2ccc(-c3noc(C(F)(F)F)n3)cc2)c1)=NOC1CCCCO1 (centres unmarked) [compound 218]	100	98	–
CSc1nn(Cc2ccc(-c3noc(C(F)(F)F)n3)cc2)nc1C [compound 31]	100	100	–
CCCOC(=O)c1cnn(C(C)c2ccc(-c3noc(C(F)(F)F)n3)s2)c1 (centres unmarked) [compound 249]	100	100	–
COC(=O)C1COC(Cc2ccc(-c3noc(C(F)(F)F)n3)cc2)=N1 (centres unmarked) [Compound 74, methyl 4,5-dihydro-2-[[4-[5-(trifluoromethyl)-1,2,4-oxadiazol-3-yl]phenyl]methyl]-4-oxazolecarboxylate]	–	–	pest or weed control at 10 µg/mL ([1]; Phakopsora pachyrhizi, 216 h, test suspension 10 ppm, soybean seedlings, 100 = 100% disease control, 0 = no control): 99%; pest or weed control at 10 µg/mL ([2]; Puccinia recondita, 168 h, test suspension 10 ppm, wheat seedlings): 51%
CCC(C)OC(=O)c1cnn(Cc2ccc(-c3noc(C(F)(F)F)n3)cc2)c1 (centres unmarked) [compound 481]	–	–	Test A disease control rating [1, 5]: 100%; Test C disease control rating [2, 6]: 100%
COC(=O)C=CCOC(=O)c1cnn(Cc2ccc(-c3noc(C(F)(F)F)n3)cc2)c1 [compound 275]	100	100	–
CCOC(=O)c1cnn(CCOc2ccc(-c3noc(C(F)(F)F)n3)cc2)c1 [compound 308]	0	0	–
FC(F)(F)c1nc(-c2ccc(Cn3cc(I)cn3)cc2)no1 [compound 383]	–	–	Test A disease control rating [1, 5]: 71%; Test C disease control rating [2, 6]: 68%
CNC(=O)c1nn(Cc2ccc(-c3noc(C(F)(F)F)n3)cc2)c2ccccc12 [compound 45]	100	99	–
Cc1cc2c(cnn2Cc2ccc(-c3noc(C(F)(F)F)n3)cc2)cc1Br [compound 32]	96	68	–
COC(=O)c1ccc2c(cnn2Cc2ccc(-c3noc(C(F)(F)F)n3)cc2)c1 [compound 48]	100	89	–
O=[N+]([O-])c1ccc2c(c1)c(Br)nn2Cc1ccc(-c2noc(C(F)(F)F)n2)cc1 [compound 30]	25	0	–

Source: US20240090503A1, “FUNGICIDAL OXADIAZOLES AND THEIR MIXTURES” (FMC CORPORATION, priority 2020, published 2024)
